From patent publication US7511076B2, “Nitrosation-inducible inhibitors biological macromolecules” (New York University, priority 2000, dated 2009)

How the values were obtained:
[1] = target: T1, RNA polymerase from E. coli (RNAP) (Escherichia coli, UniProt P0A7Z4+P0A8T7+P0A8V2); test: *NO-dependent RNAP inactivation assay (in vitro transcription); assay type: biochemical; settings: for *NO-dependent inactivation of RNAP (transcription) in the presence of ANSA: RNAP + ANSA treated with low dose of *NO; for Effect on transcription by RNAP, agent alone: agent added alone (*NO low dose without ANSA; ANSA without *NO)
T1 construct: made in house
T1 sequence (P0A8V2 whole entry): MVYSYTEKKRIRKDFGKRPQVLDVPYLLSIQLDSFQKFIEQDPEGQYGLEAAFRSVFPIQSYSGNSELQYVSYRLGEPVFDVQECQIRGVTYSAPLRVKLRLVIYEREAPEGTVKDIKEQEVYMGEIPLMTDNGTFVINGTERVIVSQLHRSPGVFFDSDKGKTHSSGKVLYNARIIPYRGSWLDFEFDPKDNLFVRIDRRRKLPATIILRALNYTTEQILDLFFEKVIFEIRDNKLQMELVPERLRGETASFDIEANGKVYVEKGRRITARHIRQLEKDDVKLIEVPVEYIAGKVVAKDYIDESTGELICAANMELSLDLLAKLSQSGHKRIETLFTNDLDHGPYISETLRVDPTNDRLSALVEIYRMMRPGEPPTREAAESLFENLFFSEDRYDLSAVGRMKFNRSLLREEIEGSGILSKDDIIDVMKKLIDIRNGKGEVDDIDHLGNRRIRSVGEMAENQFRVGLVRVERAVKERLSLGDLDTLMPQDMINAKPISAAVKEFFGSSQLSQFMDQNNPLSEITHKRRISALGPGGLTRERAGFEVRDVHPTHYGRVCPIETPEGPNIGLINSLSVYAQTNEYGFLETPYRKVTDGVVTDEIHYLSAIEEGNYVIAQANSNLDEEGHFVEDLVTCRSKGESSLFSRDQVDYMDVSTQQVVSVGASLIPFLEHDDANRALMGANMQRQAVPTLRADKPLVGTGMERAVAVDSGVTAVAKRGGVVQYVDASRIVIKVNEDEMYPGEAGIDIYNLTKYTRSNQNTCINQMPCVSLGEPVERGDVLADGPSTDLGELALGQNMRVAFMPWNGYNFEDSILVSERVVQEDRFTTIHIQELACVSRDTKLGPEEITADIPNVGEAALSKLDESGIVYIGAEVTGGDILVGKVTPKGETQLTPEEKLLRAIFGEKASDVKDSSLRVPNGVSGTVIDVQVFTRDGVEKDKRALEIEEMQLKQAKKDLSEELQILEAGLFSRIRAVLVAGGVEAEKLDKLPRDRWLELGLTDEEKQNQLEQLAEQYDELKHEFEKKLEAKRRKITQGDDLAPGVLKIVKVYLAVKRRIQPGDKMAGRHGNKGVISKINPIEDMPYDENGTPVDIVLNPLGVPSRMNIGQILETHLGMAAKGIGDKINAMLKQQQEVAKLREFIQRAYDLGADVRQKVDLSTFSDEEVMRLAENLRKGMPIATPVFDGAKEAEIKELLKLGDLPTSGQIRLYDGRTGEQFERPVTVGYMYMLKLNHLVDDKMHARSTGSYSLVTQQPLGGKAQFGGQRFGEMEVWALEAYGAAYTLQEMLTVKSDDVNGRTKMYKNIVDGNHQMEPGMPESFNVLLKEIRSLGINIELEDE
T1 sequence (P0A8T7 whole entry): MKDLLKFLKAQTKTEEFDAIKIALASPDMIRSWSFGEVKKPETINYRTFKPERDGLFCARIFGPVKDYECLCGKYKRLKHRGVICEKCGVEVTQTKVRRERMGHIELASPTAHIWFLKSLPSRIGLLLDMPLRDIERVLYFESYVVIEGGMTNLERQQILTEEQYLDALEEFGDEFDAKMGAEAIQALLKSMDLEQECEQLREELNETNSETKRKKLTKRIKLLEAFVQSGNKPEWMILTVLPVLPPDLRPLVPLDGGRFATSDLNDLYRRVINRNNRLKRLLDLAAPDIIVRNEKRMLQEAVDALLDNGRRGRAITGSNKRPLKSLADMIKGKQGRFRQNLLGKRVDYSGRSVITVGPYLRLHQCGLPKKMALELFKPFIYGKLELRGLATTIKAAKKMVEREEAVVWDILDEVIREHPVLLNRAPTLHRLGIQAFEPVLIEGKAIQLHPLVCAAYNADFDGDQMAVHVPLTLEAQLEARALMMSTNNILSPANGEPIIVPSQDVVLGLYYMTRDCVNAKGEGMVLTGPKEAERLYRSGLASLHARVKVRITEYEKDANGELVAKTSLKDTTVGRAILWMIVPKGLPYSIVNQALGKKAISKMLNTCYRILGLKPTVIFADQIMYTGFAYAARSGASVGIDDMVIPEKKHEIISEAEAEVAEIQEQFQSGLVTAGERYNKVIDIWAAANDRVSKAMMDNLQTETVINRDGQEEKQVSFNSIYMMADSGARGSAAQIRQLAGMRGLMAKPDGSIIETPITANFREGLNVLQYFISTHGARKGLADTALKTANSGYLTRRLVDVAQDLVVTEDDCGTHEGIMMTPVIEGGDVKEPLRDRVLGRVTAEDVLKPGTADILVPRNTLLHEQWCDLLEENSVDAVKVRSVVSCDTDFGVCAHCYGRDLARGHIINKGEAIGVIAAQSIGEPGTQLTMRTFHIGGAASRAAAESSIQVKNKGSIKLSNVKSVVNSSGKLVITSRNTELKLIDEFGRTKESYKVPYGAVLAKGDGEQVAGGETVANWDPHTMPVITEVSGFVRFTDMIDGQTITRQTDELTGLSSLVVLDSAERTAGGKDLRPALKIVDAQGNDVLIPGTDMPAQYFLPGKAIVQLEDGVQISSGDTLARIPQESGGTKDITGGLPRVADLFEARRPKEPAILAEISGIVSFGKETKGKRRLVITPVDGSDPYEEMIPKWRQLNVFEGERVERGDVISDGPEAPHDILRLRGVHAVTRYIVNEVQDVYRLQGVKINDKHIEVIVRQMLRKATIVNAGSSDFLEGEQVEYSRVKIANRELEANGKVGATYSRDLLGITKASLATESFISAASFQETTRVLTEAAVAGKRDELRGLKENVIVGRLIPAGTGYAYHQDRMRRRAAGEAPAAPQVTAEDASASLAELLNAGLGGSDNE
T1 sequence (P0A7Z4 whole entry): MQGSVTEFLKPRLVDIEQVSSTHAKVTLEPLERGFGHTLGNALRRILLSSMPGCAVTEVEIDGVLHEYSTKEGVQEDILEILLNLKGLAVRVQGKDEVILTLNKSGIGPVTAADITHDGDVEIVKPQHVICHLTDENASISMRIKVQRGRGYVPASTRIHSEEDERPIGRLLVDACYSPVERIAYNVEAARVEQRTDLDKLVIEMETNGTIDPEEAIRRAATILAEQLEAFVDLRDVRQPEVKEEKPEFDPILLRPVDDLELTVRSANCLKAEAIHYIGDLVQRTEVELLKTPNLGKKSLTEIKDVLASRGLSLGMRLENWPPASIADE
T1 sequence (P0A800 2-91 partner limits assumed): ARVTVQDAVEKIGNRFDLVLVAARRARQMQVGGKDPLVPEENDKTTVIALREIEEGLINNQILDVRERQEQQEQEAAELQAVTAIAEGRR
T1 sequence (P00579 whole entry partner): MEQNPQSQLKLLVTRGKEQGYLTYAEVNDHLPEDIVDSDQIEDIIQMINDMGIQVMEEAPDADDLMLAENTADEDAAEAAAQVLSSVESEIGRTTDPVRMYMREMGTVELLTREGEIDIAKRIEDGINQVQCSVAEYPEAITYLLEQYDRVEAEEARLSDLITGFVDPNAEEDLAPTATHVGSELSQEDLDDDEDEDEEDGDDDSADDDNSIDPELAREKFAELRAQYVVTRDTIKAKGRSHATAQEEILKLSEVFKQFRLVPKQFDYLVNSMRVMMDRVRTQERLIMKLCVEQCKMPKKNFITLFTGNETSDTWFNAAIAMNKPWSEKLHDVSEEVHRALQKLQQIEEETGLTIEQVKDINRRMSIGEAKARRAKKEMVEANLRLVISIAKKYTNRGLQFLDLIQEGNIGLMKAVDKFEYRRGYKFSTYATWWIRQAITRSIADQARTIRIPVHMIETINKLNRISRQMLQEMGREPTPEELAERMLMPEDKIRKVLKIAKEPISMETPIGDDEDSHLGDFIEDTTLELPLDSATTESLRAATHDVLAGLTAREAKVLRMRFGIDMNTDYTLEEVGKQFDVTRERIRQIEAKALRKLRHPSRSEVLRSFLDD
Procedure: Transcription reactions (total volume=20 μl) were performed in a buffer containing 20 mM Tris HCL, pH 7.5, 10 mM MgCl2, 50 mM KCl, 8 μM ATP, GTP, UTP, 1.8 μM CTP, and 0,15 μM [α-^32P] CTP (3000 Ci/mmol) for 5 minutes at 37° C. RNAP was purified as described (Nudler et al, 1996). The DNA template containing the A1 promoter of phage T7 was obtained by polymerase chain reaction from the plasmid pENtR2 (Nudler et al, 1996).
Hydrophobic Amines (ANSA) as *NO-Dependent Enzyme Inhibitors. To investigate whether this mechanism might be functioning in proteins other than BSA, the effect of nitrosation on a completely distinct protein—RNA polymerase from E. coli (RNAP)—was examined. The experiments were done by exposing RNAP to a low dose of *NO, and then adding the DNA template and ribonucleotide substrates to initiate the transcription reaction. For a control, a solution of NO2^− for the *NO was substituted by oxidizing *NO prior to the experiment. […] The *NO-dependent inhibition of RNAP was complex. […] Shorter transcripts represent paused RNAP molecules resulting from the limited amount of CTP in the reaction. […] The complex inhibitory effect of nitrosation on RNAP is not surprising since many potential nitrosation targets are distributed in structurally and functionally distinct regions of the enzyme (Zhang et al, 1999).
To determine whether this process could also occur with RNAP, the mixture of RNAP+ANSA II was treated with *NO (FIG. 3, lane 4).
To further test the autocatalytic mechanism of enzyme inactivation and the key role of nitrosation-azocoupling in this process additional ANSA was synthesized and were tested in the *NO-dependent RNAP inactivation assay (FIG. 3). […] ANSA VI and ANSA VII, with methyl and peptidyl substitutions in the NH2 group, were incapable of forming aryldiazonium cation upon nitrosation. […] This experiment raises the possibility that hydrophobic amines could be used as efficient tools for the *NO-dependent inactivation of enzymes.

[2] = tested on: Escherichia coil strain BL21 and Bacillus subtilis Strain IS75; test: Bactericidal effect on Gram-negative and Gram-positive bacteria; assay type: cell-based, Escherichia coli; Bacillus subtilis; settings: for Effect of the additive on the bactericidal effect of ANSA (CFU): NO trap or water solution of NO added with ANSA
Procedure: (§1) ANSA Derivatives as a New Class of Antibiotics and Antineoplastic Drugs. ANSA derivatives (shown in FIG. 9) were tested for their cytotoxic capabilities using wild type strains of Gram-negative and Gram-positive bacterial (Escherichia coil strain BL21 and Bacillus subtilis Strain IS75).
In order to be nitrosated, peptidyl-ANSA must undergo cleavage of the C-terminal amino acid residue to relieve the R3 NH2 group. Taking advantage of the chromogenic nature of ANSA compounds, it was possible to determine whether the peptidyl-ANSA were transported in the cell and processed by proteolysis.

[3] = tested on: prostatic carcinoma cell lines DU-145 and PC-3 and normal human fibroblasts (WI-38); test: MTS cytotoxicity assay (CellTiter 96); settings: for Effect of the additive on ANSA cytotoxicity: NO trap or general NOS inhibitor added; for Cytotoxic effect / cell survival (MTS, in words): 0.1-100 μM, 72 h, presence or absence of *NO
Procedure: A second preliminary study used two human hormone-independent prostatic carcinoma cell lines DU-145 and PC-3 (ATCC, Virginia) and normal human fibroblasts (WI-38). The MTS cytotoxicity assay (“CellTiter 96”, Promega) was used to measure the cytotoxicity of several ANSA compounds in the presence or absence of *NO. All compounds tested in vitro were dissolved in DMSO ([…]) and subsequently diluted in the culture medium before treatment of the cultured cells. Tested cells were plated in 96-well plates at a density of 4×10^3 cells/well/200 μL of the proper culture medium and treated with the compounds at concentrations of 0.1-100 μM. In parallel, the cells were treated with 1% of DMSO as control. MTS assay was performed 72 h later according to instructions provided by the manufacturer (Promega). This assay is based on the cellular conversion of the tetrazolium salt, MTS[3-(4,5-dimethylthiazol-2-yl)-5-(3-carboxymethoxyphenyl)-2-(4-sulfophenyl)-2H-tetrazolium, inner salt], into a formazan that is soluble in cell culture medium and is measured at 490 nm directly in 96-well assay plates without additional processing. Absorbency is directly proportional to the number of living cells in culture.
In order to be nitrosated, peptidyl-ANSA must undergo cleavage of the C-terminal amino acid residue to relieve the R3 NH2 group.

BSA = target: T2, BSA (Bos taurus, UniProt P02769); test: Complex formation and nitrosation of ANSA in the presence of BSA (gel filtration, fluorescence, TLC); assay type: binding; settings: for Nitrosation of ANSA in the ANSA I+ANSA II+BSA mixture: low dose of *NO (5 molar excess), aerobic
T2 construct: purchased Sigma
T2 sequence (P02769 25-607): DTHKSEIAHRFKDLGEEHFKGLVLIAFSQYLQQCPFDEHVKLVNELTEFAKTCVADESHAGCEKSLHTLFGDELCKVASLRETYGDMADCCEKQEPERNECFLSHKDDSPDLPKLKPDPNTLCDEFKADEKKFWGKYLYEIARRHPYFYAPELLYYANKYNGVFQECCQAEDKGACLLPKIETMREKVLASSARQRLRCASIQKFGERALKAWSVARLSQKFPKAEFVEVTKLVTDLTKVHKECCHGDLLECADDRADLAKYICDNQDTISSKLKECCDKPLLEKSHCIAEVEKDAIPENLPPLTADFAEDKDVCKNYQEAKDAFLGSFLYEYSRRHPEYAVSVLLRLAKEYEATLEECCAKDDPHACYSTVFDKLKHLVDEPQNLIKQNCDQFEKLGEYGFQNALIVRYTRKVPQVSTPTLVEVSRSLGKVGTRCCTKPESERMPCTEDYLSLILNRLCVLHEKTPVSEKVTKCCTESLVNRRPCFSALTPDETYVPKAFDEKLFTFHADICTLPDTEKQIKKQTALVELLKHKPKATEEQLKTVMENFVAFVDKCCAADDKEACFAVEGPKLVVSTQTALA
Procedure: ANSA were synthesized from 5-nitronaphthalenesulphoacids and 5-aminonaphthalenesulphoacids (Reahim). TLC of ANSA and their derivatives was carried out on Silica gel 60 plates (Merck) in the hexane/ethyl acetate system. Gel filtration was performed using the Sephadex G25M size-exclusion column (Pharmacia). Fluorescence of ANSA was observed and measured under 365 nm UV light using BioRad Fluor-S MultiImager system.
The present inventors first synthesized two ANSA with opposite hydrophobic properties (FIG. 12B). In the low-hydrophobic ANSA molecule (ANSA I), the R1 group is —CH3 and the R2 group is —H. The highly hydrophobic ANSA (ANSA II) has C3H7 for both R1 and RExperiments were done by mixing an aqueous solution of ANSA with the test protein, and then initiating the nitrosation reaction by the aerobic addition of an aqueous solution of *NO. Two initial concentrations of *NO were used at 25 molar excess over ANSA (high dose) and a 5 molar excess (low dose).

[4] = tested on: Escherichia coil strain BL21; test: Bactericidal effect of ANSA derivatives on E. coli cultures (CFU count); assay type: cell-based, Escherichia coli; settings: 20 μg/ml ANSA, 30 minutes, room temperature, start 10^7 CFU ml^−1, *NO and/or PTIO 20 μM where indicated; for CFU, E. coli, rich media: LB broth; for CFU, E. coli, minimal media: M9 minimal media
Procedure: as §1

[5] = tested on: Bacillus subtilis Strain IS75; test: Bactericidal effect of ANSA derivatives on B. subtilis cultures (CFU count); assay type: cell-based; settings: 20 μg/ml ANSA, 30 minutes, room temperature, start 10^7 CFU ml^−1, *NO and/or PTIO 20 μM where indicated; for CFU, B. subtilis, rich media: LB broth; for CFU, B. subtilis, minimal media: Spizizen's minimal media
Procedure: as §1

SMILES	*NO-dependent inactivation of RNAP (transcription) in the presence of ANSA [1]	CFU, E. coli, rich media [4]	CFU, E. coli, minimal media [4]	CFU, B. subtilis, rich media [5]	CFU, B. subtilis, minimal media [5]	further results
CNc1cccc2c(S(=O)(=O)N(C)C)cccc12 [ANSA VI]	unable to enhance inactivation of RNAP	–	–	–	–	–
CC1(C)N([O])C(c2ccccc2)=[N+]([O-])C1(C)C [PTIO, 2-phenyl-4,4,5,5-tetramethylimidazoline-1-oxyl-3-oxide, reference compound]	–	–	–	–	–	Effect of the additive on the bactericidal effect of ANSA (CFU) [2]: almost completely abolished the inhibitory effect; Effect of the additive on ANSA cytotoxicity [3]: decreased the inhibitory effect
CCCN(CCC)S(=O)(=O)c1cccc2c(N)cccc12 [ANSA II]	completely inactivated RNAP	–	–	–	–	Effect on transcription by RNAP, agent alone [1]: did not affect transcription; Formation of a stable complex with BSA (BSA; gel filtration analysis): able to form a stable complex with BSA; Nitrosation of ANSA in the ANSA I+ANSA II+BSA mixture (BSA): nitrosated
O=NO [NO2^−, nitrite, reference compound]	–	–	–	–	–	Effect on transcription by RNAP, agent alone [1]: had no effect
CNS(=O)(=O)c1cccc2c(N)cccc12 [ANSA I]	had no effect on transcription	10^6-10^7 CFU ml^−1	≈10^7 CFU ml^−1	≈10^7 CFU ml^−1	≈10^7 CFU ml^−1	Nitrosation of ANSA in the ANSA I+ANSA II+BSA mixture (BSA): intact; Cytotoxic effect / cell survival (MTS, in words) [3]: not
CCCCCNS(=O)(=O)c1cccc2c(NC(=O)C(CCCNC(=N)N)NC(=O)C(CCCNC(=N)N)NC(=O)CNC(=O)CN)cccc12 (stereo not drawn) [ANSA VII]	unable to enhance inactivation of RNAP	0 CFU ml^−1	–	–	–	Bactericidal effect / cell survival (in words) [2]: strongest bactericidal effect; Cytotoxic effect / cell survival (MTS, in words) [3]: strong cytotoxic effect
CCCCCNS(=O)(=O)c1cccc2c(NC)cccc12 [ANSA VIII]	–	≈10^7 CFU ml^−1	≈10^7 CFU ml^−1	≈10^7 CFU ml^−1	≈10^7 CFU ml^−1	Bactericidal effect / cell survival (in words) [2]: had no effect on cell survival; Cytotoxic effect / cell survival (MTS, in words) [3]: had no effect on cell survival
COC(=O)[C@@H](N)CCCNC(=N)N[N+](=O)[O-] [L-NAME, reference compound]	–	–	–	–	–	Effect of the additive on ANSA cytotoxicity [3]: decreased the cytotoxicity
CCCCCNS(=O)(=O)c1cccc2c(N)cccc12 [ANSA V]	completely inactivated RNAP	0-20 CFU ml^−1	≈10^3 CFU ml^−1	10^2-10^3 CFU ml^−1	10^2 CFU ml^−1	–
[N]=O [*NO, Nitric oxide, reference compound]	–	≈10^6 CFU ml^−1	≈10^6 CFU ml^−1	≈10^6 CFU ml^−1	≈10^6 CFU ml^−1	Effect of the additive on the bactericidal effect of ANSA (CFU) [2]: restored the bactericidal effect; Effect on transcription by RNAP, agent alone [1]: partially inhibited transcription
CN(C)S(=O)(=O)c1cccc2c(N)cccc12 [ANSA III]	partial negative effect	–	–	–	–	–
Nc1cccc2c(S(=O)(=O)N3CCOCC3)cccc12 [ANSA IV]	partial negative effect	–	–	–	–	–
